Reference: patent US11925624B2, “Methods of administering anti-fibrotic therapy” (GENENTECH, INC., priority 2016, dated 2024)
Several values for one entry are separate records, joined by “and”; a condition that tells them apart may be missing. Equal entries are not always repeated.

Experiment: Phase 1 single ascending dose (Part A) pharmacokinetics, fasted state
Type: in vivo, human
Details: for % AUCextrap: arithmetic mean
Method: A Phase 1, randomized, blinded, placebo-controlled safety, tolerability, and pharmacokinetic study of Compound I in 80 healthy adult subjects was conducted.
This study was a randomized, blinded, placebo-controlled, ascending-dose study to evaluate the safety, tolerability, and pharmacokinetic (PK) of single (Part A) and multiple (Part B) doses of Compound I in healthy subjects. In addition, the effects of a standard high-fat breakfast, standard low-fat breakfast, and pretreatment and co-administration of a proton pump inhibitor (PPI) on the tolerability and PK of a single dose of Compound I were investigated in 2 groups in Part A. All subjects received their full dose of Compound I, administered as the appropriate number of either 25 or 200 mg tablets. The high fat breakfast comprised the following: total energy: 895 kcal; total fat: 61 g; total protein: 41 g; total carbohydrate: 46 g. The low fat breakfast comprised the following: total energy: 611 kcal; total fat: 14.7 g; total protein: 20.3 g; total carbohydrate: 106.3 g.
In Part A, 56 subjects were studied in 6 groups (Groups A1 to A6) with each of Groups A1, A2, A3, A5, and A6 composed of 8 subjects (6 received Compound I, 2 received placebo) and Group A4 was composed of 16 subjects (12 received Compound I, 4 received placebo). The first dose group (A1) included a sentinel cohort of 2 subjects (1 subject received Compound I and 1 subject received placebo) dosed 48 hours in advance of the remainder of the group.
All subjects in Groups A1 through A6 participated in Treatment Period 1 and received the fasted treatment regimen. In Treatment Period 1, subjects resided at the Clinical Research Unit (CRU) from Day −1 (the day before dosing) to Day 4 (72 hours post-dose). In Treatment Period 1, all doses were administered on the morning of Day 1, after an overnight fast of at least 8 hours. In Groups A1, A2, A3, and A6, each subject received only a single dose of Compound I (25 mg in Group A1, 75 mg in Group A2, 200 mg in Group A3, and 1600 mg in Group A6) or placebo (per the randomization schedule) during the study.
In Part A, all doses in Treatment Period 1 were administered after an overnight fast of at least 8 hours. For the A4 cohort, in Treatment Periods 2 and 3, doses were administered 30 minutes after starting and approximately 10 minutes after completing a high- or low-fat breakfast. In Treatment Period 4, the dose was administered after an overnight fast and following administration of a PPI (PPI was comprised of 3 doses of rabeprazole 20 mg, starting on Day −2 and with the final dose 2 hours before Compound I administration on Day 1). For Group A5, doses during Treatment Period 2 were administered 30 minutes after starting and approximately 10 minutes after completing a low-fat standard breakfast on the morning of Day 1, and doses during Treatment Period 3 were administered on Day 1 after a low-fat meal and following administration of a PPI for 3 days (given as 3 QD doses, with the final PPI dose at 2 hours prior to study drug administration on Day 1).

[1] = 75 mg vs 25 mg (3-fold increase in dose)

Cn1cc(-c2cn(-c3ccc(OC(F)(F)F)cc3)c(=O)c3ncn(C)c23)cn1 [Compound I]
AUC0-t (norm) (25 mg single dose (A1)): 13400 hr*ng/mL/(mg/kg)
AUC0-∞ (norm) (25 mg single dose (A1)): 13600 hr*ng/mL/(mg/kg)
Ae0-24 (25 mg single dose (A1)): 19.2 mg
CL/F (25 mg single dose (A1)): 90.5 mL/min
CL/F(norm) (25 mg single dose (A1)): 1.23 (mL/min)/kg
Cmax (norm) (25 mg single dose (A1)): 2700 ng/mL/(mg/kg)
fe0-24 (25 mg single dose (A1)): 76.9%
t1/2 (25 mg single dose (A1)): 3.61 h
λZ (25 mg single dose (A1)): 0.192 h⁻¹
% AUCextrap (25 mg single dose (A1)): 1.25%
AUC0-t (norm) (75 mg single dose (A2)): 12600 hr*ng/mL/(mg/kg)
AUC0-∞ (norm) (75 mg single dose (A2)): 12600 hr*ng/mL/(mg/kg)
Ae0-24 (75 mg single dose (A2)): 54.8 mg
CL/F (75 mg single dose (A2)): 96.0 mL/min
CL/F(norm) (75 mg single dose (A2)): 1.32 (mL/min)/kg
Cmax (norm) (75 mg single dose (A2)): 2180 ng/mL/(mg/kg)
fe0-24 (75 mg single dose (A2)): 73.0%
t1/2 (75 mg single dose (A2)): 5.02 h
λZ (75 mg single dose (A2)): 0.138 h⁻¹
% AUCextrap (75 mg single dose (A2)): 0.486%
Fold increase in AUC0-t [1]: 2.9 fold
Fold increase in AUC0-∞ [1]: 2.8 fold
Fold increase in Cmax [1]: 2.5 fold
AUC0-t (norm) (200 mg single dose (A3)): 12000 hr*ng/mL/(mg/kg)
AUC0-∞ (norm) (200 mg single dose (A3)): 12100 hr*ng/mL/(mg/kg)
Ae0-24 (200 mg single dose (A3)): 105 mg
CL/F (200 mg single dose (A3)): 102 mL/min
CL/F(norm) (200 mg single dose (A3)): 1.38 (mL/min)/kg
Cmax (norm) (200 mg single dose (A3)): 1140 ng/mL/(mg/kg)
fe0-24 (200 mg single dose (A3)): 52.5%
λZ (200 mg single dose (A3)): 0.0602 h⁻¹
% AUCextrap (200 mg single dose (A3)): 0.969%
AUC0-t (norm) (400 mg single dose (A4)): 9420 hr*ng/mL/(mg/kg)
AUC0-∞ (norm) (400 mg single dose (A4)): 9650 hr*ng/mL/(mg/kg)
Ae0-24 (400 mg single dose (A4)): 133 mg
CL/F (400 mg single dose (A4)): 121 mL/min
CL/F(norm) (400 mg single dose (A4)): 1.73 (mL/min)/kg
Cmax (norm) (400 mg single dose (A4)): 790 ng/mL/(mg/kg)
fe0-24 (400 mg single dose (A4)): 33.3%
λZ (400 mg single dose (A4)): 0.0594 h⁻¹
% AUCextrap (400 mg single dose (A4)): 2.37%
AUC0-t (norm) (800 mg single dose (A5)): 6700 hr*ng/mL/(mg/kg)
AUC0-∞ (norm) (800 mg single dose (A5)): 7080 hr*ng/mL/(mg/kg)
Ae0-24 (800 mg single dose (A5)): 172 mg
CL/F (800 mg single dose (A5)): 169 mL/min
CL/F(norm) (800 mg single dose (A5)): 2.35 (mL/min)/kg
Cmax (norm) (800 mg single dose (A5)): 532 ng/mL/(mg/kg)
fe0-24 (800 mg single dose (A5)): 21.5%
λZ (800 mg single dose (A5)): 0.0433 h⁻¹
% AUCextrap (800 mg single dose (A5)): 5.17%
Increase in AUC and Cmax (1600 mg dose compared to 800 mg dose): no significant increase
AUC0-t (norm) (1600 mg single dose (A6)): 3090 hr*ng/mL/(mg/kg)
AUC0-∞ (norm) (1600 mg single dose (A6)): 3740 hr*ng/mL/(mg/kg)
Ae0-24 (1600 mg single dose (A6)): 145 mg
CL/F (1600 mg single dose (A6)): 307 mL/min
CL/F(norm) (1600 mg single dose (A6)): 4.46 (mL/min)/kg
Cmax (norm) (1600 mg single dose (A6)): 235 ng/mL/(mg/kg)
fe0-24 (1600 mg single dose (A6)): 9.1% and 9.09%
